From patent US6242199A, “Assays for growth hormone secretagogue receptors” (Merck & Co., Inc., priority 1998, dated 2001)
Where no end group is shown, it is not given here.

biological target: T1, growth hormone secretagogue receptor (GHSR), porcine anterior pituitary membranes (Sus scrofa, UniProt Q95254); test: [35S]-Compound A radioreceptor binding, porcine anterior pituitary membranes; conditions: not given
T1 construct: Frozen anterior pituitary glands from male swine (50-80 Kg); from tissue; host or cells: anterior pituitary glands of male swine (50-80 kg), crude membranes
Protocol: Frozen anterior pituitary glands from male swine (50-80 Kg) or from the Wistar male rats (150-200 g) were homogenized in a tissue homogenizer in ice-cold buffer (50 mM Tris-HCl buffer, pH 7.4, 5 mM MgCl2, 2.5 mM EDTA, 0.1% bovine serum albumin and 30 μg/ml bacitracin). The homogenates were centrifuged for 5 min at 1,400×g and the resulting supernatants were then centrifuged at 34,000×g for 20 min. The pellets were resuspended in same buffer to a 1,500 μg protein/ml and stored at -80° C. Protein was determined by a Bio-Rad method (Bio-Rad Laboratories, Richmond, Calif.).
Aliquots were incubated at 20° C. for 60 min and bound radioligand was separated from free by filtration through GF/C filters pretreated with 0.5% of polyethylenimine in a Brandel cell harvester. […] Assays were carried out in triplicate and experiments repeated at least three times.

T1 sequence (Q95254 whole entry): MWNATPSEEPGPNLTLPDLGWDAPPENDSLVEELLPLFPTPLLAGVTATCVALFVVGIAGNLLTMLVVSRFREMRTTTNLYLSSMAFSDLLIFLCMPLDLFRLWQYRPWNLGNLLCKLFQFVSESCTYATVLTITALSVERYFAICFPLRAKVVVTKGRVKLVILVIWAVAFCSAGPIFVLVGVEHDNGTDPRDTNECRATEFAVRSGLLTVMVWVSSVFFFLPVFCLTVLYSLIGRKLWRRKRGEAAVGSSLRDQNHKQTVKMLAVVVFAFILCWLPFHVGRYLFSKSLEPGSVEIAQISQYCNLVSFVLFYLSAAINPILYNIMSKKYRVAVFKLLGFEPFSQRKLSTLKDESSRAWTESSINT

Compound | IC50 [nM]
Nc1nc2c(ncn2[C@@H]2O[C@H](COP(=O)(O)OP(=O)(O)OP(O)(O)=S)[C@@H](O)[C@H]2O)c(=O)[nH]1 [GTP-γ-S] | 30

same assay, conditions: 1 μM

Compound | competition with [35S]-Compound A at 1 μM (in words)
CC(C)NC[C@H](O)COc1cccc2ccccc12 (racemic) [propanolol] | did not compete
COc1cccc(OC)c1OCCNCC1CSc2ccccc2O1 (stereo not drawn) [benoxathian] | did not compete
CC(C)C[C@H]1C(=O)N2CCC[C@H]2[C@]2(O)O[C@](NC(=O)[C@@H]3C=C4c5cccc6[nH]c(Br)c(c56)C[C@H]4N(C)C3)(C(C)C)C(=O)N12 [bromocriptine] | did not compete
Clc1cccc(Cl)c1N=C1NCCN1 [clonidine] | did not compete
CC(C)NCC(O)c1ccc(O)c(O)c1 (stereo not drawn) [isoproterenol] | did not compete
COc1ccc(OC)c(C(O)C(C)N)c1 (stereo not drawn) [methoxamine] | did not compete
CC(COc1ccccc1)N(CCCl)Cc1ccccc1 (stereo not drawn) [phenoxybenzamine] | did not compete
NC(=O)[C@@H]1CCCN1C(=O)[C@H](Cc1cnc[nH]1)NC(=O)[C@@H]1CCC(=O)N1 [thyrotropin releasing hormone] | did not compete
GHRH: hypothalamic hormone, growth hormone releasing factor | did not compete
PHM-27 (HADGVFTSDFSKLLGQLSAKKYLESLM; ends and bridges not checked; UniProt P01282 81-107, looked up) | did not compete
galanin | did not compete
gastrin releasing peptide (VPLPAGGGTVLTKMYPRGNHWAVGHLM; ends and bridges not checked; UniProt P07492 24-50, looked up) | did not compete
gonadotropin releasing hormone | did not compete
melanocyte stimulating hormone | did not compete
met-enkephalin | did not compete
pituitary adenylate cyclase activating polypeptide-38 | did not compete
somatostatin: hypothalamic hormone | did not compete
substance P | did not compete

same assay, conditions: % of affinity of Compound A

affinity relative to that of Compound A [%] | Compound
0.4 | CC(C)(N)CC(=O)N[C@@H]1CCc2ccccc2N(Cc2ccc(-c3ccccc3-c3nn[nH]n3)cc2)C1=O [Compound B]
3.8 | GHRP-6

same assay, conditions: GTP analogs / nucleotides; FIG. 26; read-out: inhibition of [35S]-Compound A binding, IC50

IC50 [nM] | Compound
110 | Nc1nc2c(ncn2[C@@H]2O[C@H](COP(=O)(O)OP(=O)(O)NP(=O)(O)O)[C@@H](O)[C@H]2O)c(=O)[nH]1 [GMP-PNP]

same assay, conditions: double reciprocal plot of saturation isotherm; FIG. 25

Compound | nature of competition with [35S]-Compound A (in words)
CC(C)(N)CC(=O)N[C@@H]1CCc2ccccc2N(Cc2ccc(-c3ccccc3-c3nn[nH]n3)cc2)C1=O [Compound B] | competitor of [^35 S]-Compound A binding
GHRP-6 | interacts competitively with Compound A in the same binding site

same assay, conditions: nucleotides; FIG. 26

Compound | effect on [35S]-Compound A binding (in words)
Nc1ncnc2c1ncn2[C@@H]1O[C@H](COP(=O)(O)OP(=O)(O)OP(O)(O)=S)[C@@H](O)[C@H]1O [ATP-γ-S] | ineffective

same assay, conditions: unlabeled competitor; FIG. 24

displacement of / competition with [35S]-Compound A binding (in words) | Compound
competed poorly | CC(C)(N)CC(=O)N[C@H]1CCc2ccccc2N(Cc2ccc(-c3ccccc3-c3nn[nH]n3)cc2)C1=O [Compound C]

biological target: growth hormone secretagogue receptor (GHSR) of swine, native receptor of the anterior pituitary (swine) (UniProt Q95254); test: competition with [35S]-Compound A on porcine anterior pituitary membranes, filtration; conditions: not given

affinity as percent of that of Compound A [%] | Compound
3.8 | GHRP-6 (peptide)
